Test results reported in patent US20230332232A1, “COMPOSITIONS AND METHODS FOR DIAGNOSING AND TREATING A DYSTONIA” (Duke University, priority 2020, published 2023).

System: wild-type (WT) murine embryonic fibroblasts (MEFs)
Assay: Untargeted LC/MS/MS proteomics of EVs from WT MEFs exposed 24 hours to drug, compared with untreated WT MEFs
Format: cell-based, mouse
Description: Methods for isolation and purification of exosomes and extracellular vesicles (EV) were extensively reviewed. Experiments were performed to arrive at a robust and reproducible protocol. The protocol used herein is that set forth in Théry et al, 2006, which is incorporated by reference for it teaching of this protocol. This protocol involves depleting serum-derived EVs from cell culture media by overnight ultracentrifugation and exchanging media for 1% FBS EV-depleted media. Media is then collected from cells following a 24-hour conditioning period and EVs are isolated by 18-hour ultracentrifugation at 100,000 g (FIG. 1A).
EVs were isolated from media of cultured murine embryonic fibroblasts (MEFs) prepared in-house according to protocols described by Xu 2005 from DYT1 knockin mice (Tor1a^delGAG/+) (Goodchild R E, et al. (2005) Neuron. 48:923-932) and littermate wild-type (WT) controls. The cultured MEFs from the DYT1 mice were exposed for 24 hours to Ritonavir (RTV) while the MEFs from WT mice were exposed to vehicle, ISRIB, or Salubrinal (SAL). The EVs isolated from these WT cells and DYT1 were characterized by untargeted proteomics and RNA-seq to identify differentially expressed proteins and RNAs as candidate biomarkers. Experimenter and Proteomics core staff were blinded to genotype of cell cultures throughout preparation and analysis phases. EV isolation was confirmed by Western immunoblot documenting presence of the exosomal marker (TSG101) and absence of the endoplasmic reticulum (ER) marker (CANX) (FIG. 1B (Cohort 1) and FIG. 1C (Cohort 2)).
Following the bicinchoninic acid assay (BCA) analysis and Western immunoblot of a portion of samples for QC, 11.6 μg-129.2 μg of EV protein lysates in RIPA buffer were sent to the Duke Proteomics and Metabolomics Shared Resource core facility for LC/MS/MS quantitative proteomic analysis. Samples were first normalized to 20 μg and spiked with undigested casein at a total of 40 fmol/μg, 80 fmol/μg, or 160 fmol/μg, then reduced with 10 mM dithiolthreitol for 30 minute at 80° C. and alkylated with 20 mM iodoacetamide for 30 minutes at room temperature. Next, the samples were supplemented with a final concentration of 1.2% phosphoric acid and 741 μL of S-Trap (Protifi) binding buffer (90% MeOH/100 mM […]). Proteins were trapped on the S-Trap, digested using 20 ng/μL sequencing grade trypsin (Promega) for 1 hour at 47° C., and eluted using 50 mM TEAB, followed by 0.2% FA, and lastly using 50% CAN/0.2% FA. All samples were then lyophilized to dryness and resuspended in 40 μL 1% TFA/2% acetonitrile containing 12.5 fmol/μL yeast alcohol dehydrogenase (ADH_YEAST). A QC Pool was created from 3 uL of each sample. All QC Pools were run periodically throughout the acquisition period.
Quantitative LC/MS/MS was performed on 2 μL of each sample, using a nanoAcquity UPLC system (Waters Corp) coupled to a Thermo Orbitrap Fusion Lumos high resolution accurate mass tandem mass spectrometer (Thermo) via a nanoelectrospray ionization source. Briefly, the sample was first trapped on a Symmetry C18 20 mm×180 μm trapping column (5 μL/min at 99.9/0.1 v/v water/acetonitrile), after which the analytical separation was performed using a 1.8 μm Acquity HSS T3 C18 75 μm×250 mm column (Waters Corp.) with a 90 minute linear gradient of 5% to 30% acetonitrile with 0.1% formic acid at a flow rate of 400 nanoliters/minute (nL/min) with a column temperature of 55° C. Data collection on the Fusion Lumos mass spectrometer was performed in a data-dependent acquisition (DDA) mode of acquisition with a r=120,000 (@ m/z 200) full MS scan from m/z 375-1500 with a target AGC value of 2e5 ions. MS/MS scans were acquired at Rapid scan rate (Ion Trap) with an AGC target of 5e3 ions and a max injection time of 100 ms. The total cycle time for MS and MS/MS scans was 2 seconds. A 20 second dynamic exclusion was employed to increase depth of coverage. The total analysis cycle time for each sample injection was approximately 2 hours. […]

[1] = EV protein P09528, Ferritin heavy chain

O=C(COc1ccc(Cl)cc1)NC1CCC(NC(=O)COc2ccc(Cl)cc2)CC1 (centres unmarked) [ISRIB] was tested, and the “ISRIB Direction Same as dE?” value (EV protein Akr1b1 (P45376)) was “yes”, the “ISRIBvWT Z Score” value (EV protein Akr1b1 (P45376)) was −0.22 and the “ISRIB Direction Same as dE?” value (EV protein Aldh2 (P47738)) was “yes”. The “ISRIBvWT Z Score” value (EV protein Aldh2 (P47738)) was −7.25, the “ISRIBvWT Z Score” value (EV protein Cnn3 (Q9DAW9)) was 2.76 and the “ISRIB Direction Same as dE?” value (EV protein Cnot1 (Q6ZQ08)) was “yes”. For the same compound, the “ISRIBvWT Z Score” value (EV protein Cnot1 (Q6ZQ08)) was −2.56, the “ISRIB Direction Same as dE?” value (EV protein Col5a1 (Q88207)) was “yes” and the “ISRIBvWT Z Score” value (EV protein Col5a1 (Q88207)) was 0.06. For the same compound, the “ISRIB Direction Same as dE?” value (EV protein Copb2 (Q55029)) was “yes”, the “ISRIBvWT Z Score” value (EV protein Copb2 (Q55029)) was −1.11 and the “ISRIBvWT Z Score” value (EV protein Cryab (P23927)) was 0.39. For the same compound, the “ISRIBvWT Z Score” value (EV protein Cxadr (P97792)) was 1.72, the “ISRIBvWT Z Score” value (EV protein D3YXG0) was −2.25 and the “ISRIB Direction Same as dE?” value (EV protein Dars (Q922B2)) was “yes”. For the same compound, the “ISRIBvWT Z Score” value (EV protein Dars (Q922B2)) was −1.13, the “ISRIB Direction Same as dE?” value (EV protein Dctn2 (Q99KJ8)) was “yes” and the “ISRIBvWT Z Score” value (EV protein Dctn2 (Q99KJ8)) was −0.53. For the same compound, the “ISRIB Direction Same as dE?” value (EV protein Ddx3x (Q62167)) was “yes”, the “ISRIBvWT Z Score” value (EV protein Ddx3x (Q62167)) was −1.08 and the “ISRIB Direction Same as dE?” value (EV protein Ddx5 (Q61656)) was “yes”. For the same compound, the “ISRIBvWT Z Score” value (EV protein Ddx5 (Q61656)) was −0.92, the “ISRIB Direction Same as dE?” value (EV protein Ddx39b (Q9Z1N5)) was “yes” and the “ISRIBvWT Z Score” value (EV protein Ddx39b (Q9Z1N5)) was −1.12. The “ISRIB Direction Same as dE?” value (EV protein Dhx9 (Q70133)) was “yes”, the “ISRIBvWT Z Score” value (EV protein Dhx9 (Q70133)) was −1.27 and the “ISRIB Direction Same as dE?” value (EV protein Dhx15 (Q35286)) was “yes”. The “ISRIBvWT Z Score” value (EV protein Dhx15 (Q35286)) was −1.19, the “ISRIBvWT Z Score” value (EV protein Esyt1 (Q3U7R1)) was 0.18 and the “ISRIB Direction Same as dE?” value (EV protein Exoc4 (Q35382)) was “yes”. The “ISRIBvWT Z Score” value (EV protein Exoc4 (Q35382)) was −1.51, the “ISRIBvWT Z Score” value (EV protein Fth1 P09528) was −3.46 and the “ISRIBvWT Z Score” value (EV protein Fus (P56959)) was 0.85. The “ISRIBvWT Z Score” value (EV protein Gsto1 (Q09131)) was 0.04, the “ISRIB Direction Same as dE?” value (EV protein Hist1h3a (P68433)) was “yes” and the “ISRIBvWT Z Score” value (EV protein Hist1h3a (P68433)) was −0.97. For the same compound, the “ISRIB Direction Same as dE?” value (EV protein Hnrnpf (Q9Z2X1)) was “yes”, the “ISRIBvWT Z Score” value (EV protein Hnrnpf (Q9Z2X1)) was −0.18 and the “ISRIBvWT Z Score” value (EV protein Hnrnph1 (Q35737)) was 2.47. For the same compound, the “ISRIB Direction Same as dE?” value (EV protein Idh2 (P54071)) was “yes”, the “ISRIBvWT Z Score” value (EV protein Idh2 (P54071)) was −2.01 and the “ISRIBvWT Z Score” value (EV protein Impa1 (Q55023)) was 1.73. For the same compound, the “ISRIBvWT Z Score” value (EV protein Ipo7 (Q9EPL8)) was 0.30, the “ISRIB Direction Same as dE?” value (EV protein Ipo11 (Q8K2V6)) was “yes” and the “ISRIBvWT Z Score” value (EV protein Ipo11 (Q8K2V6)) was −1.97. For the same compound, the “ISRIBvWT Z Score” value (EV protein Itgb3 (Q54890)) was 0.14, the “ISRIBvWT Z Score” value (EV protein Itm2b Q89051) was −2.13 and the “ISRIB Direction Same as dE?” value (EV protein Itpa (Q9D892)) was “yes”. For the same compound, the “ISRIBvWT Z Score” value (EV protein Itpa (Q9D892)) was −1.25, the “ISRIB Direction Same as dE?” value (EV protein Kpna4 (Q35343)) was “yes” and the “ISRIBvWT Z Score” value (EV protein Kpna4 (Q35343)) was −3.18. The “ISRIB Direction Same as dE?” value (EV protein Lipg (Q9WVG5)) was “yes”, the “ISRIBvWT Z Score” value (EV protein Lipg (Q9WVG5)) was −2.47 and the “ISRIB Direction Same as dE?” value (EV protein Ltbp1 (Q8CG19)) was “yes”. For the same compound, the “ISRIBvWT Z Score” value (EV protein Ltbp1 (Q8CG19)) was 2.17, the “ISRIB Direction Same as dE?” value (EV protein Mcm2 (P97310)) was “yes” and the “ISRIBvWT Z Score” value (EV protein Mcm2 (P97310)) was −2.10. The “ISRIBvWT Z Score” value (EV protein Mdk (P12025)) was 1.33, the “ISRIB Direction Same as dE?” value (EV protein Mtap (Q9CQ65)) was “yes” and the “ISRIBvWT Z Score” value (EV protein Mtap (Q9CQ65)) was −0.85. For the same compound, the “ISRIBvWT Z Score” value (EV protein Myo18a) was 2.27, the “ISRIBvWT Z Score” value (EV protein Nrbp1 (Q99J45)) was 0.18 and the “ISRIBvWT Z Score” value (EV protein Otub1 (Q7TQ..)) was 2.26. The “ISRIB Direction Same as dE?” value (EV protein Otub1 (Q7TQB)) was “yes”, the “ISRIBvWT Z Score” value (EV protein Otub1 (Q7TQB)) was −2.26 and the “ISRIB Direction Same as dE?” value [1] was “yes”. For the same compound, the “ISRIBvWT Z Score” value [1] was −3.46 and the “ISRIB Direction Same as dE?” value (EV protein P27612, Phospholipase A-2-activating protein) was “yes”.
